Test results reported in the NIST ThermoML archive (doi:10.1016/j.fluid.2018.07.022).

Settings: Liquid, Pendant drop shape

[HH] [hydrogen] + O
Settings | interfacial tension [mN/m]
298.03 K, 500 kPa | 72.3
298.03 K, 1000 kPa | 72.9
298.04 K, 2000 kPa | 73
298.04 K, 5000 kPa | 72.6
298.04 K, 7500 kPa | 72.2
298.04 K, 10100 kPa | 71.9
298.04 K, 25000 kPa | 70.3
298.05 K, 3500 kPa | 72.8
298.05 K, 45200 kPa | 68.7
298.06 K, 15000 kPa | 71.3
298.06 K, 20100 kPa | 70.8
298.06 K, 30100 kPa | 69.8
298.09 K, 39900 kPa | 69.1
322.9 K, 1000 kPa | 69.3
322.98 K, 2000 kPa | 69.3
322.99 K, 5000 kPa | 68.9
323 K, 3500 kPa | 69.1
323 K, 10000 kPa | 68.3
323 K, 15000 kPa | 67.8
323 K, 40100 kPa | 65.8
323.01 K, 20000 kPa | 67.2
323.01 K, 25000 kPa | 66.8
323.02 K, 500 kPa | 68.9
323.02 K, 30100 kPa | 66.5
372.73 K, 15000 kPa | 59
372.74 K, 500 kPa | 59.8
372.77 K, 1000 kPa | 59.7
372.77 K, 25200 kPa | 58.5
372.77 K, 29800 kPa | 58.1
372.78 K, 2000 kPa | 59.7
372.78 K, 40100 kPa | 57.6
372.81 K, 10000 kPa | 59.3
372.85 K, 20100 kPa | 58.7
372.87 K, 5000 kPa | 59.5
448.02 K, 2000 kPa | 44.1
448.04 K, 1500 kPa | 44
448.24 K, 5000 kPa | 43.8
448.28 K, 15000 kPa | 43.4
448.29 K, 10000 kPa | 43.7
448.31 K, 25000 kPa | 43.2
448.31 K, 30100 kPa | 42.9
448.33 K, 20000 kPa | 43.3
448.35 K, 40100 kPa | 43.2
